Measured values reported in ChEMBL document CHEMBL1158583, “3-(2-Aminocarbonylphenyl)propanoic acid analogs as potent and selective EP3 receptor antagonists. Part 3: Synthesis, metabolic stability, and biological evaluation of optically active analogs” (Bioorg Med Chem, 2010).

Columns and labels:
[1] = (§1) AUC in rat at […], iv; type: ADME, organism-based; parameters: dose 2.7 mg/kg, route intravenous; details: plasma
[2] = (§2) Volume of distribution at steady state in rat at […], iv; type: ADME, organism-based; parameters: dose 2.7 mg/kg, route intravenous; details: in vivo, read-out: Vdss
[3] = (§3) AUC in rat at 10 mg/kg, po; type: ADME, organism-based, Plasma; parameters: dose 10 mg/kg, route oral; details: plasma
[4] = Volume of distribution at steady state in rat at 2 mg/kg, iv; type: ADME, organism-based; parameters: dose 2 mg/kg, route intravenous; details: in vivo, read-out: Vdss
[5] = (§4) Oral bioavailability in rat at 10 mg/kg; type: ADME, organism-based; details: in vivo
[6] = Cmax in rat at 10 mg/kg, po; type: ADME, organism-based; parameters: dose 10 mg/kg, route oral; details: in vivo
[7] = (§5) AUC in rat at 2 mg/kg, iv; type: ADME, organism-based, Plasma; parameters: dose 2 mg/kg, route intravenous; details: plasma
Rattus norvegicus [8] = experiment: as §4; type: ADME, organism-based; details: in vivo
Rattus norvegicus [9] = experiment: as §3; type: ADME, organism-based, Plasma; parameters: dose 10 mg/kg, route oral; details: in vivo
Rattus norvegicus [10] = experiment: as §5; type: ADME, organism-based, Plasma; parameters: dose 2 mg/kg, route intravenous; details: in vivo
[11] = as §1; type: ADME, organism-based; parameters: dose 1.2 mg/kg, route intravenous; details: plasma
[12] = as §2; type: ADME, organism-based; parameters: dose 1.2 mg/kg, route intravenous; details: in vivo, read-out: Vdss
[13] = as §2; type: ADME, organism-based; parameters: dose 1.8 mg/kg, route intravenous; details: in vivo, read-out: Vdss
[14] = as §1; type: ADME, organism-based; parameters: dose 1.8 mg/kg, route intravenous; details: plasma

Compound	AUC [3] [ng·h/mL]	Vd [4] [L/kg]	bioavailability [5] [%]	Cmax [6] [ng/mL]	also measured
Cc1cc(C)cc([C@@H](CC(C)C)NC(=O)c2cc(COc3ccccc3C)ccc2CCC(=O)O)c1	1010				AUC [1]: 890 ng·h/mL; Vd [2]: 1.24 L/kg
Cc1cc(C)cc(Oc2ccc(CCC(=O)O)c(C(=O)N[C@H](CC(C)C)c3cc(C)cc(C)c3)c2)c1	1430	0.56	21	950	AUC [7]: 1370 ng·h/mL
Cc1cc(C)cc(Nc2ccc(CCC(=O)O)c(C(=O)N[C@H](CC(C)C)c3cc(C)cc(C)c3)c2)c1		1.03		1370	bioavailability (Rattus norvegicus [8]): 25%; AUC (Rattus norvegicus [9]): 3270 ng·h/mL; AUC (Rattus norvegicus [10]): 2670 ng·h/mL
Cc1cc(C)cc([C@@H](CC(C)C)NC(=O)c2cc(COc3cc(F)ccc3F)ccc2CCC(=O)O)c1			18	190	AUC [11]: 681 ng·h/mL; Vd [12]: 0.39 L/kg
Cc1cc(C)cc([C@@H](CC(C)C)NC(=O)c2cc(COc3cc(C)ccc3C)ccc2CCC(=O)O)c1	4100		54	1350	Vd [13]: 0.67 L/kg; AUC [14]: 1370 ng·h/mL
